Among the data in ChEMBL document CHEMBL4513152, “CO-ADD screening of Yantai University (China) compounds” are MIC and CC50 values, retold here.

Values after ≈ are worked out from the molar mass of the structure shown.

One assay concerns Escherichia coli. Briefly: microbe, parasite or virus in culture. The following applies: ATCC 25922, 18 h, ASSAY_TEST Inhibition of Bacterial Growth, detection method Absorption (OD600), MEDIA CAMHB, plate type 384well, NBS, CORNING #3640.
The test system of another assay is Staphylococcus aureus. As to the kind of experiment: microbe, parasite or virus in culture. Conditions: ATCC 43300, 18 h, ASSAY_TEST Inhibition of Bacterial Growth, detection method Absorption (OD600), MEDIA CAMHB, plate type 384well, NBS, CORNING #3640.
The next assay concerns Klebsiella pneumoniae. Briefly: microbe, parasite or virus in culture. The following applies: ATCC 700603, 18 h, ASSAY_TEST Inhibition of Bacterial Growth, detection method Absorption (OD600), MEDIA CAMHB, plate type 384well, NBS, CORNING #3640.
In a further assay the test system is Candida albicans. As to the kind of experiment: microbe, parasite or virus in culture. The following applies: ATCC 90028, ASSAY_TEST Inhibition of Fungal Growth, detection method Absorption (OD530), plate type 384well, NBS, CORNING #3640.
In another assay the test system is HEK293. Briefly: cells. The following applies: Homo sapiens, ATCC CRL1573, HEK293; ASSAY_TEST Inhibition of Cell Viability; detection method Resazurin; Fluorescence (ex560/em590); MEDIA DMEM with 10% FBS; plate type 384well; TC; CORNING #3712; time 18 hr. In kind it is functional. In general terms: Alamar Blue is a resazurin reagent that responds to reducing activity.

A further assay relates to Acinetobacter baumannii. As to the kind of experiment: microbe, parasite or virus in culture. The following applies: ATCC 19606, 18 h, ASSAY_TEST Inhibition of Bacterial Growth, detection method Absorption (OD600), MEDIA CAMHB, plate type 384well, NBS, CORNING #3640.
For the next assay, the system named is Pseudomonas aeruginosa. Briefly: microbe, parasite or virus in culture. The following applies: ATCC 27853, 18 h, ASSAY_TEST Inhibition of Bacterial Growth, detection method Absorption (OD600), MEDIA CAMHB, plate type 384well, NBS, CORNING #3640.

Description for Acinetobacter baumannii: Antibacterial activity against Acinetobacter baumannii ATCC 19606 (CO-ADD:GN_034); MIC in CAMBH media using NBS plates, by OD600
Description for Candida albicans: Antifungal activity against Candida albicans ATCC 90028 (CO-ADD:FG_001); MIC in YNB media using NBS plates, by OD630
Description for Cryptococcus neoformans: Antifungal activity against Cryptococcus neoformans H99 ATCC 208821 (CO-ADD:FG_002); MIC in YNB media using NBS plates, by Resazurin OD(600-570)
Description for Escherichia coli: Antibacterial activity against Escherichia coli ATCC 25922 (CO-ADD:GN_001); MIC in CAMBH media using NBS plates, by OD(600)
Description for Klebsiella pneumoniae: Antibacterial activity against Klebsiella pneumoniae MDR ATCC 70063 (CO-ADD:GN_003); MIC in CAMBH media using NBS plates, by OD(600)
Description for Pseudomonas aeruginosa: Antibacterial activity against Pseudomonas aeruginosa ATCC 27853 (CO-ADD:GN_042); MIC in CAMBH media using NBS plates, by OD(600)
Description for Staphylococcus aureus: Antibacterial activity against Staphylococcus aureus MRSA ATCC 43300 (CO-ADD:GP_020); MIC in CAMBH media, using NBS plates, by OD(600)

One may read the CC50 as the concentration that lowers cell viability or growth by half. As to `CC(=O)O[C@H]1C[C@@]2(C)C(C[C@@H](O)C3[C@@]4(C)CC[C@@H](OC(=O)CCCCCN)[C@@H](C)C4CC[C@@]32C)/C1=C(\CCC=C(C)C)C(=O)OCc1ccccc1` (some centres undefined), the MIC against Escherichia coli was above 32 µg/mL; against Staphylococcus aureus it was 16 µg/mL (≈ 22.2 µM); in the assay with Klebsiella pneumoniae, above 32 µg/mL; in the assay on Candida albicans, 32 µg/mL (≈ 44.4 µM); in the assay on Cryptococcus neoformans, 16 µg/mL (≈ 22.2 µM); with Acinetobacter baumannii it was above 32 µg/mL. This molecule also showed an MIC against Pseudomonas aeruginosa above 32 µg/mL. Moreover, in the assay with HEK293, the CC50 came to 8.27 µg/mL (≈ 11.5 µM).
Regarding `CC(=O)O[C@H]1C[C@@]2(C)C(C[C@@H](O)C3[C@@]4(C)CC[C@@H](O)[C@@H](C)C4CC[C@@]32C)/C1=C(\CCC=C(C)C)C(=O)O/C(=N/C1CCCCC1)NC1CCCCC1` (some centres undefined), the MIC against Escherichia coli was above 32 µg/mL; in the assay with Staphylococcus aureus, 32 µg/mL (≈ 44.3 µM); against Klebsiella pneumoniae it was above 32 µg/mL; against Candida albicans, above 32 µg/mL; against Cryptococcus neoformans it was above 32 µg/mL; with Acinetobacter baumannii it was above 32 µg/mL. The molecule further showed an MIC with Pseudomonas aeruginosa above 32 µg/mL. Further, the CC50 with HEK293 was 19.9 µg/mL (≈ 27.5 µM).
Consider `CC(=O)O[C@H]1C[C@@]2(C)C(C[C@@H](O)C3[C@@]4(C)CC[C@@H](OC(=O)C(N)Cc5ccccc5)[C@@H](C)C4CC[C@@]32C)/C1=C(\CCC=C(C)C)C(=O)OCc1ccccc1` (some centres undefined), for which the MIC in the assay on Escherichia coli, in the assay with Staphylococcus aureus, against Klebsiella pneumoniae, against Candida albicans, in the assay on Cryptococcus neoformans and against Acinetobacter baumannii was above 32 µg/mL each time. This molecule also yielded an MIC in the assay with Pseudomonas aeruginosa above 32 µg/mL. In the assay with HEK293, this molecule displayed a CC50 above 32 µg/mL.
On to `CC(=O)O[C@H]1C[C@@]2(C)C(C[C@@H](O)C3[C@@]4(C)CC[C@@H](OC(=O)CN)[C@@H](C)C4CC[C@@]32C)/C1=C(\CCC=C(C)C)C(=O)OCc1ccccc1` (some centres undefined), for which the MIC with Escherichia coli was above 32 µg/mL; against Staphylococcus aureus, above 32 µg/mL; with Klebsiella pneumoniae, above 32 µg/mL; against Candida albicans, 32 µg/mL (≈ 48.2 µM); against Cryptococcus neoformans, 16 µg/mL (≈ 24.1 µM); with Acinetobacter baumannii it was above 32 µg/mL. The MIC against Pseudomonas aeruginosa is above 32 µg/mL. For the same molecule, half-maximal cytotoxicity in the assay on HEK293 (CC50) was put at 10.8 µg/mL (≈ 16.3 µM).
Regarding `CCN/C(=N\CCCN(C)C)OC(=O)/C(CCC=C(C)C)=C1/C2C[C@@H](O)C3[C@@]4(C)CC[C@@H](O)[C@@H](C)C4CC[C@]3(C)[C@@]2(C)C[C@@H]1OC(C)=O` (some centres undefined), the MIC with Escherichia coli was above 32 µg/mL; in the assay on Staphylococcus aureus, 8 µg/mL (≈ 11.9 µM); against Klebsiella pneumoniae, above 32 µg/mL; against Candida albicans, above 32 µg/mL; with Cryptococcus neoformans, above 32 µg/mL; in the assay on Acinetobacter baumannii, above 32 µg/mL. Besides, the MIC with Pseudomonas aeruginosa was above 32 µg/mL. The molecule also came in with a CC50 in the assay with HEK293 of 15.4 µg/mL (≈ 22.9 µM).
Take `CC(=O)O[C@H]1C[C@@]2(C)C(C[C@@H](O)C3[C@@]4(C)CC[C@@H](O)[C@@H](C)C4CC[C@@]32C)/C1=C(\CCC=C(C)C)C(=O)On1nnc2ccc(Cl)cc21` (some centres undefined): the MIC is above 32 µg/mL against Escherichia coli; at most 0.25 µg/mL in the assay on Staphylococcus aureus; above 32 µg/mL against Klebsiella pneumoniae; above 32 µg/mL against Candida albicans; above 32 µg/mL against Cryptococcus neoformans; above 32 µg/mL against Acinetobacter baumannii. Further, the MIC with Pseudomonas aeruginosa is above 32 µg/mL. Further, the CC50 in the assay with HEK293 was above 32 µg/mL.
`CC(=O)O[C@H]1C[C@@]2(C)C(C[C@@H](O)C3[C@@]4(C)CC[C@@H](OC(=O)c5ccccc5C(=O)O)[C@@H](C)C4CC[C@@]32C)/C1=C(\CCC=C(C)C)C(=O)OCc1ccccc1` (some centres undefined): the MIC against Escherichia coli is above 32 µg/mL; against Staphylococcus aureus, 32 µg/mL (≈ 42.4 µM); in the assay on Klebsiella pneumoniae it was above 32 µg/mL; in the assay with Candida albicans, above 32 µg/mL; in the assay on Cryptococcus neoformans it was above 32 µg/mL; with Acinetobacter baumannii, above 32 µg/mL. Further, the MIC in the assay with Pseudomonas aeruginosa is above 32 µg/mL. The molecule further came in with a CC50 with HEK293 of 20.6 µg/mL (≈ 27.3 µM).
On to `CC(=O)O[C@H]1C[C@@]2(C)C(C[C@@H](O)C3[C@@]4(C)CC[C@@H](O)[C@@H](C)C4CC[C@@]32C)/C1=C(\CCC=C(C)C)C(=O)O` (some centres undefined), for which the MIC was above 32 µg/mL against Escherichia coli; at most 0.25 µg/mL in the assay on Staphylococcus aureus; above 32 µg/mL against Klebsiella pneumoniae; above 32 µg/mL in the assay with Candida albicans; above 32 µg/mL against Cryptococcus neoformans; above 32 µg/mL against Acinetobacter baumannii. The MIC in the assay on Pseudomonas aeruginosa was above 32 µg/mL. For the same molecule, the CC50 with HEK293 was above 32 µg/mL.
